Where a chain is given by its changes, count along the chain named. Marks after values point to notes of the source that are not given here.
Assays:
[1] = molecular target: T1, DCLK1-FL1Δ WT (Homo sapiens, UniProt O15075); experiment: SPR binding to immobilised DCLK1-FL1Δ WT (phosphorylated); details: for Kd / kon, kinetic fitting: SPR, mean ± SEM; for Kd: 18 °C, DCLK1 FL1Δ WT immobilised; for kon, kinetic fitting: DCLK1 FL1Δ WT; for koff: read-out: koff, kinetic fitting
T1 sequence (O15075 50-686 isoform O15075-2): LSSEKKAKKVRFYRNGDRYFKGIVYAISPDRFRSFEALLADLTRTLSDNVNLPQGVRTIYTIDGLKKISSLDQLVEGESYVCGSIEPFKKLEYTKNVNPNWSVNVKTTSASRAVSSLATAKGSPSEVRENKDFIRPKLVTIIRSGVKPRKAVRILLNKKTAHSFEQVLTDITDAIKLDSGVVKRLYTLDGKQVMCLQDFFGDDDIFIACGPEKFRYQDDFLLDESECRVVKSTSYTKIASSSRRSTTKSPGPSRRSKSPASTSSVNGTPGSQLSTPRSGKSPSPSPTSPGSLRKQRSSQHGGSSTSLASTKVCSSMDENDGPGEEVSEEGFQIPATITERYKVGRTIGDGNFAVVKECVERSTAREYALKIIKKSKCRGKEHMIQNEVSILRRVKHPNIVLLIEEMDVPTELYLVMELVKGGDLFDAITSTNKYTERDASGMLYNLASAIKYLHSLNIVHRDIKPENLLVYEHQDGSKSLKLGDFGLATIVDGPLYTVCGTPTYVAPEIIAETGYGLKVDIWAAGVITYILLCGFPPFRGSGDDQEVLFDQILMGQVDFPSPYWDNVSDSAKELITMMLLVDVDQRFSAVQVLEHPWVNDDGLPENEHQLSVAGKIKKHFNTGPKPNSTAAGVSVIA
Description: (§1) SPR studies were carried out on a Biacore 2000 instrument (Cytivia). Proteins were immobilised at 25 °C using standard amine coupling to a CM5 chip (Cytivia) in immobilisation buffer consisting of 10 mM HEPES pH 7.4, 150 mM NaCl, 1 mM TCEP, 0.005% Tween P20, 1% (v/v) DMSO. To the active flow, cells were coupled either DCLK1-FL1Δ D511N or WT to a final density of approximately 7000 RU, followed by surface deactivation with 1 M ethanolamine. For each protein, coupling was performed at a concentration of 2 µM protein in 10 mM sodium acetate buffer pH 4.0, 1% (v/v) DMSO final, in the presence 10 µM of the moderate affinity compound FMF-03-149-01 (IC50 ~400 nM)[28] to help to stabilise the kinase domain during immobilsiation at low pH. A blank immobilisation was performed on the reference flow cell.
(§2) Binding experiments were performed at 18 °C in running buffer consisting of 20 mM HEPES, pH 7.4, 150 mM NaCl, 1 mM tris(2-carboxyethyl)phosphine (TCEP), 0.005% (v/v) Tween-P20, and 2% (v/v) DMSO. Compounds (10 mM stocks in 100% DMSO) were diluted in DMSO to 500 µM (DCLK1-NEG) or 25 µM (all other compounds) then in running buffer (without DMSO) to achieve the starting concentration with a final DMSO concentration of 2% (v/v). Samples were then serially titrated in running buffer containing 2% (v/v) DMSO to prepare each final concentration series (seven-point, three-fold serial dilution, 10 µM−13.7 nM for DCLK1-NEG, or 500−0.68 nM for all other compounds). Solutions were injected in multi-cycle format (in duplicate) without regeneration (contact time 80 s, flow rate 75 μL/min, dissociation time 600 s), with an extra wash (50% DMSO) after each injection.
(§3) Steady-state/kinetic binding data were fitted using the S200 BIAevaluation software (GE Healthcare). Sensorgrams from reference surfaces and blank injections were subtracted from the raw data (double-referencing), followed by solvent correction. Kinetic rate constants (kon and koff values) were obtained by fitting to 1:1 Langmuir binding model. Reported binding data represent mean ± SEM for three or four independent experiments. The dissociative half-life life (t1/2) for each inhibitor complex with DCLK1 was calculated from the fitted dissociation rate constant (koff), according to the equation 1 (t1/2 = ln(2)/koff.)

[2] = molecular target: T2, DCLK1-KD (residues 372-649) (Homo sapiens, UniProt O15075); experiment: Thermal shift stability assay, DCLK1-KD; format: binding; details: compound titration 2.5 to 40 μM
T2 construct: the DCLK1 kinase domain (DCLK1-KD; residues 372-649) by carrying out thermal stability assays; 8XHis tag with TEV protease cleavage site (N); made in house; host or cells: Escherichia coli C41(DE3)
T2 sequence (O15075 372-649 isoform O15075-2): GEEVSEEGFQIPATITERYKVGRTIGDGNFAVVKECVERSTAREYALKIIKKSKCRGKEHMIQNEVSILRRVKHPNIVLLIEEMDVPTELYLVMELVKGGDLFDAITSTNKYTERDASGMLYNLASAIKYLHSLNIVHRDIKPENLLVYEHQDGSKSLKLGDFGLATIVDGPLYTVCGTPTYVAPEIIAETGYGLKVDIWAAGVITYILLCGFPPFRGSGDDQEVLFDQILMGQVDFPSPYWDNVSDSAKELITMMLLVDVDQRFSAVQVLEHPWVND
Description: (§4) DCLK1 proteins were diluted in 150 mM NaCl, 20 mM Tris pH 8.0, 1 mM DTT to […] final concentration and assayed with the appropriate concentration of inhibitor in a total reaction volume of 25 μL. SYPRO Orange (Molecular Probes) was used as a fluorescence probe and detected at 530 nm. The data shown are representative of two independent experiments.

[3] = molecular target: T3, DCLK1-FL1Δ D511N (Homo sapiens, UniProt O15075, D511N); experiment: SPR binding to immobilised DCLK1-FL1Δ D511N (non-phosphorylated); details: for Kd / kon, kinetic fitting: SPR; for kon, kinetic fitting: DCLK1 FL1Δ D511N; for koff: read-out: koff, kinetic fitting; for kon: read-out: kon (Fig. 5c)
T3 construct: DCLK1-FL1Δ (residues 50-686); 8XHis tag with TEV protease cleavage site (N); made in house; host or cells: Escherichia coli C41(DE3)
Description: as §1, §2, §3

[4] = tested on: DCLK1; details: N-ethyl substitution at R4; cited from earlier work
[5] = molecular target: T4, DCLK1-KD G532V (Homo sapiens, UniProt O15075, G532V); experiment: Thermal shift stability assay, DCLK1-KD G532V; format: binding; details: XMD8-85 40 μM, versus DCLK1-KD WT
T4 construct: Truncated DCLK1 constructs, DCLK1-KD (residues 372-649); 8XHis tag with TEV protease cleavage site (N); made in house; host or cells: Escherichia coli C41(DE3)
T4 sequence (O15075 372-649 isoform O15075-2 G532V): T2 sequence (O15075 372-649 isoform O15075-2) with G161V
Description: as §4, with “Thermal shift stability assays were performed as described previously. DCLK1” for “DCLK1”

[6] = molecular target: T3, DCLK1-FL1Δ D511N; experiment: Thermal shift stability assay, DCLK1-FL1Δ D511N; format: binding; details: 40 μM
Description: as §4

[7] = molecular target: T5, DCLK1-FL1Δ D511N tubulin polymerisation (MAP function) (Homo sapiens, UniProt O15075, D511N); experiment: Tubulin polymerisation and pelleting assay with DCLK1-FL1Δ D511N; format: biochemical; details: 40 μM, pelleting / SDS-PAGE (Fig. 5d)
T5 construct: DCLK1-FL1Δ (residues 50-686); 8XHis tag with TEV protease cleavage site (N); made in house; host or cells: Escherichia coli C41(DE3)
T5 sequence (O15075 50-686 isoform O15075-2 D511N): T1 sequence (O15075 50-686 isoform O15075-2) with D462N
Description: Tubulin polymerisation assays were performed in buffer containing 80 mM PIPES at pH 6.9, 2.0 mM MgCl2, 0.5 mM EGTA, 2.5 mM β,γ-Methyleneguanosine 5’-triphosphate, and 10 μM tubulin and 5 μM DCLK1 for 1 h at 37 °C. For tubulin polymerisation in the presence of inhibitors, various concentrations of the inhibitors were first incubated with DCLK1 and allowed to stand on ice for 5 min before adding this mix to the tubulin polymerisation reaction. Following the tubulin polymerisation, the reaction mix was pelleted at 20,000 g for 20 min and the supernatant and the pellet fractions were run on a 12% SDS gel. The data shown are representative of two independent experiments.

[8] = molecular target: T5, DCLK1-FL1Δ D511N tubulin polymerisation (MAP function); experiment: Fluorescence-based Tubulin Polymerisation Assay with DCLK1-FL1Δ D511N; format: biochemical; details: 80 μM, fluorescence (Fig. 5e)
Description: Tubulin polymerisation assay were performed using the Microtubule Polymerisation/Depolymerisation Fluorescence Kit (Cytoskeleton #BK011P) in accordance with the manufacturer’s instructions. DCLK1 (4 μΜ) was added to 50 μL tubulin reaction mix containing Buffer 1 (80 mM PIPES at pH 6.9, 2.0 mM MgCl2, 0.5 mM EGTA, 10 μM fluorescent reporter), guanosine triphosphate stock solution at 100 mM, and tubulin (10 mg/ml) stock solution, as described by the manufacturer. Paclitaxel, a control of tubulin polymerisation, was tested at 3 μM, and Νocodazole, a tubulin polymerisation inhibitor, was tested at 80 μΜ. DCLK1-IN-1 was tested at 20 and 40 μΜ with buffer alone as controls. Polymerisation leads to fluorescence enhancement due to incorporation of a fluorescence reporter into polymerising microtubules and was measured by excitation at 355 nm and emission at 460 nm. Readings were taken every 20 s on EnVision Multimode Plate Reader. Each condition was tested in duplicate with two independent batches of protein.

[9] = kinetic fitting (1:1 binding model)
[10] = KD, kinetic fitting (1:1 binding model), 18 °C, DCLK1 FL1Δ D511N immobilised, mean ± SEM
[11] = KD, steady state fitting, 18 °C, DCLK1 FL1Δ D511N immobilised, mean ± SEM

T3 sequence (O15075 50-686 D511N): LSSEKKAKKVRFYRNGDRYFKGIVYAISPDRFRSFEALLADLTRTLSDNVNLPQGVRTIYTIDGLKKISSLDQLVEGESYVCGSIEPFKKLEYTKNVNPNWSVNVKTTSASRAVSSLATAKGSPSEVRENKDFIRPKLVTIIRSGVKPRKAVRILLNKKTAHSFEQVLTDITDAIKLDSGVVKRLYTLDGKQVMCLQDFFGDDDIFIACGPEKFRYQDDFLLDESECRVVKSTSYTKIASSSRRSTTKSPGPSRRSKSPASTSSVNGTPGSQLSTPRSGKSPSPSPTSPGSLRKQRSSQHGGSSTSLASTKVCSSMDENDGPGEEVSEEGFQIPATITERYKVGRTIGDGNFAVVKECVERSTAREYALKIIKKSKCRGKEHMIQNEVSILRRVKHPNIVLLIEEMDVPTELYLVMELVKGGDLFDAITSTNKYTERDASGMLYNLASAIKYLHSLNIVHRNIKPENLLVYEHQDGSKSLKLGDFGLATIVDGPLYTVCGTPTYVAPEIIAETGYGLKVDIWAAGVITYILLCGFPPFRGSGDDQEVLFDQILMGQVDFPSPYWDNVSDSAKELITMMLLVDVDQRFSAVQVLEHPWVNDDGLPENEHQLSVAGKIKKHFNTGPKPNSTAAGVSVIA

Row | Kd ([1]; steady state fitting) | Kd ([3]; KD (weak binding to DCLK1), top concentration 10 µM) | Compound | binding by shift in melting temperature (ΔTm) [2] | enhanced potency on DCLK1 compared to XMD8-85 [4] | Kd [1, 9] | kon, kinetic fitting [1] | koff [1] | Kd [3, 10] | Kd [3, 11] | kon, kinetic fitting ([3]; mean ± SEM) | koff [3] | kon [3] | effect of Gly532 to valine mutation on binding affinity [5] | binding to DCLK1 by thermal stability assay [6] | effect on tubulin polymerisation [7] | effect on tubulin polymerisation [8]
1 | > 10000 nM | > 10000 nM | COc1cc(N2CCN(C)CC2)ccc1Nc1ncc2c(n1)N(C)c1ccc(C)cc1C(=O)N2CC(F)(F)F [DCLK1-NEG] | severely reduced binding to DCLK1-KD | – | – | – | – | – | – | – | – | – | – | – | – | –
2 | 28 ± 2 nM | – | CCN1C(=O)c2ccccc2N(C)c2nc(Nc3ccc(N4CCN(C)CC4)cc3OC)ncc21 [FMF-03-055-1] | – | 5 fold | 12 ± 2 nM | 9.6 ± 0.6 1/Ms (x 10^5) | 0.011 ± 0.001 s⁻¹ | 13 nM | 24 ± 1 nM | 11 ± 4 1/Ms (x 10^5) | 0.014 ± 0.006 s⁻¹ | 1.1e+06 ± 400000 M⁻¹ s⁻¹ | – | – | – | –
3 | – | – | COC(=O)Nc1nc2ccc(C(=O)c3cccs3)cc2[nH]1 [nocodazole] | – | – | – | – | – | – | – | – | – | – | – | does not bind | inhibits tubulin polymerisation | inhibits tubulin polymerisation

Row | Compound | Kd ([1]; steady state fitting) | Kd ([3]; KD (weak binding to DCLK1), top concentration 10 µM) | binding by shift in melting temperature (ΔTm) [2] | enhanced potency on DCLK1 compared to XMD8-85 [4] | Kd [1, 9] | kon, kinetic fitting [1] | koff [1] | Kd [3, 10] | Kd [3, 11] | kon, kinetic fitting ([3]; mean ± SEM) | koff [3] | kon [3] | effect of Gly532 to valine mutation on binding affinity [5] | binding to DCLK1 by thermal stability assay [6] | effect on tubulin polymerisation [7] | effect on tubulin polymerisation [8]
4 | COc1cc(N2CCN(C)CC2)ccc1Nc1ncc2c(n1)N(C)c1ccccc1C(=O)N2C [XMD8-85] | 12 ± 2 nM | – | bind DCLK1-KD | – | 7.5 ± 0.3 nM | 22 ± 2 1/Ms (x 10^5) | 0.016 ± 0.001 s⁻¹ | 8 nM | 14 ± 1 nM | 12.8 ± 0.5 1/Ms (x 10^5) | 0.01 ± 0.001 s⁻¹ | 1.28e+06 ± 50000 M⁻¹ s⁻¹ | considerably reduces XMD8-85 binding affinity | – | – | –

From PMC8452690, “Structural basis for small molecule targeting of Doublecortin Like Kinase 1 with DCLK1-IN-1” (Communications Biology, 2021)
